# Measured values published in ChEMBL document CHEMBL1136896, “Synthesis and biological evaluation of arylhydrazinocyanoacrylates and N-aryl pyrazolecarboxylates” (2009).
# Experiments:
# Format in all cases: functional
# Cucumis sativus = experiment: Growth regulatory activity in cucumber assessed as root growth at 10 mg/L incubated in dark for 5 days
# Digitaria sanguinalis [1] = experiment: Herbicidal activity against Digitaria sanguinalis at 1.5 kg/hectare administered postemergence of first true leaf measured after 10 days; conditions: post-emergence, 240 h
# Medicago sativa [2] = experiment: Herbicidal activity against Medicago sativa at 1.5 kg/hectare administered postemergence of first true leaf measured after 10 days; conditions: post-emergence, 240 h
# Mycosphaerella arachidis = experiment: Fungicidal activity against Cercospora arachidicola assessed as inhibition of mycelium growth at 50 mg/L after 72 hrs
# Amaranthus retroflexus [3] = experiment: Herbicidal activity against Amaranthus retroflexus at 1.5 kg/hectare administered preemergence of first true leaf measured after 10 days; conditions: pre-emergence, 240 h
# Amaranthus retroflexus [4] = experiment: Herbicidal activity against Amaranthus retroflexus at 1.5 kg/hectare administered postemergence of first true leaf measured after 10 days; conditions: post-emergence, 240 h
# HL-60 [5] = experiment: Antitumor activity against human HL60 cells at 100 uM/L after 72 hrs by MTT assay; conditions: HL-60, 72 h
# Cladosporium cucumerinum = experiment: Fungicidal activity against Cladosporium cucumerinum assessed as inhibition of mycelium growth at 50 mg/L after 72 hrs
# [6] = tested on: Botryosphaeria berengeriana; experiment: Fungicidal activity against Physalospora pyricola assessed as inhibition of mycelium growth at 50 mg/L after 72 hrs
# Bel-7402 [7] = experiment: Antitumor activity against human Bel7402 cells at 1000 uM/L after 72 hrs by MTT assay; conditions: Bel-7402, 72 h
# Bel-7402 [8] = experiment: Antitumor activity against human Bel7402 cells at 1 uM/L after 72 hrs by MTT assay; conditions: Bel-7402, 72 h
# HL-60 [9] = experiment: Antitumor activity against human HL60 cells at 10 uM/L after 72 hrs by MTT assay; conditions: HL-60, 72 h
# HL-60 [10] = experiment: Antitumor activity against human HL60 cells at 1000 uM/L after 72 hrs by MTT assay; conditions: HL-60, 72 h
# Medicago sativa [11] = experiment: Herbicidal activity against Medicago sativa at 1.5 kg/hectare administered preemergence of first true leaf measured after 10 days; conditions: pre-emergence, 240 h
# Bel-7402 [12] = experiment: Antitumor activity against human Bel7402 cells at 10 uM/L after 72 hrs by MTT assay; conditions: Bel-7402, 72 h
# Brassica napus [13] = experiment: Herbicidal activity against Brassica napus L. at 1.5 kg/hectare administered preemergence of first true leaf measured after 10 days; conditions: pre-emergence, 240 h
# Alternaria solani = experiment: Fungicidal activity against Alternaria solani assessed as inhibition of mycelium growth at 50 mg/L after 72 hrs
# Bel-7402 [14] = experiment: Antitumor activity against human Bel7402 cells at 100 uM/L after 72 hrs by MTT assay; conditions: Bel-7402, 72 h
# HL-60 [15] = experiment: Antitumor activity against human HL60 cells at 1 uM/L after 72 hrs by MTT assay; conditions: HL-60, 72 h
# Fusarium graminearum = experiment: Fungicidal activity against Gibberella zeae assessed as inhibition of mycelium growth at 50 mg/L after 72 hrs
# Digitaria sanguinalis [16] = experiment: Herbicidal activity against Digitaria sanguinalis (L.) Scop. at 1.5 kg/hectare administered preemergence of first true leaf measured after 10 days; conditions: pre-emergence, 240 h
# Brassica napus [17] = experiment: Herbicidal activity against Brassica napus at 1.5 kg/hectare administered postemergence of first true leaf measured after 10 days; conditions: post-emergence, 240 h
compound,measurement,setting,value
CCOCCOC(=O)/C(C#N)=C(\NNc1c(Cl)cccc1Cl)C(C)C,Activity,Cucumis sativus,-6%
same,inhibition at 1500 g/ha,Digitaria sanguinalis [1],0%
same,inhibition at 1500 g/ha,Medicago sativa [2],1.4%
same,inhibition at 50 µg/mL,Mycosphaerella arachidis,0%
same,inhibition at 1500 g/ha,Amaranthus retroflexus [3],0%
same,inhibition at 1500 g/ha,Amaranthus retroflexus [4],15.6%
same,inhibition at 100 µM,HL-60 [5],21.4%
same,inhibition at 50 µg/mL,Cladosporium cucumerinum,0%
same,inhibition at 50 µg/mL,[6],10.7%
same,inhibition at 1000 µM,Bel-7402 [7],45.1%
same,inhibition at 1 µM,Bel-7402 [8],7.6%
same,inhibition at 10 µM,HL-60 [9],7.7%
same,inhibition at 1000 µM,HL-60 [10],73.4%
same,inhibition at 1500 g/ha,Medicago sativa [11],0%
same,inhibition at 10 µM,Bel-7402 [12],9.5%
same,inhibition at 1500 g/ha,Brassica napus [13],9.9%
same,inhibition at 50 µg/mL,Alternaria solani,10%
same,inhibition at 100 µM,Bel-7402 [14],17.3%
same,inhibition at 1 µM,HL-60 [15],0%
same,inhibition at 50 µg/mL,Fusarium graminearum,4.8%
same,inhibition at 1500 g/ha,Digitaria sanguinalis [16],0%
same,inhibition at 1500 g/ha,Brassica napus [17],2.3%
